In PubChem BioAssay (NCI):
Where “and” joins values, the source holds several entries; their conditions need not be identical. Identical values can stand only once.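 Test compounds were applied to cells in 96-well plates for 48 hours at 5 doses. The concentration for 50% growth inhibition is given as GI50. TGI denotes the concentration required for complete inhibition of growth.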

Columns and labels:
Test in all cases: DTP human tumour cell line panel, 48 h
KM12 colon = system: KM12 colon
U251 CNS = system: U251 CNS
TK-10 renal = system: TK-10 renal
SF-268 CNS = system: SF-268 CNS
HCT-15 colon = system: HCT-15 colon
MOLT-4 leukemia = system: MOLT-4 leukemia
A498 renal = system: A498 renal
MDA-MB-435 = system: MDA-MB-435
ACHN renal = system: ACHN renal
HS 578T breast = system: HS 578T breast

| Structure (SMILES) | TGI (KM12 colon) | TGI (U251 CNS) | TGI (TK-10 renal) | TGI (SF-268 CNS) | TGI (HCT-15 colon) | TGI (MOLT-4 leukemia) | TGI (A498 renal) [µM] | TGI (MDA-MB-435) | TGI (ACHN renal) | GI50 (MDA-MB-435) [µM] | GI50 (KM12 colon) [µM] | GI50 (HS 578T breast) [µM] | TGI (HS 578T breast) [µM] | GI50 (U251 CNS) [µM] | GI50 (ACHN renal) [µM] | GI50 (SF-268 CNS) [µM] | GI50 (HCT-15 colon) [µM] | GI50 (MOLT-4 leukemia) [µM] | GI50 (A498 renal) [µM] | GI50 (TK-10 renal) [µM] |
| --- | --- | --- | --- | --- | --- | --- | --- | --- | --- | --- | --- | --- | --- | --- | --- | --- | --- | --- | --- | --- |
| O=c1nc2cc(-c3ccccc3)[nH]c2nn1-c1c(Cl)cc(Cl)cc1Cl | 39.2 µM | 34.2 µM | 69.4 µM | > 100 µM | > 100 µM | 64.5 µM | 89.7 | – | – | – | – | – | – | – | – | – | – | – | – | – |
| COC(=O)C1(Cc2cccc(Cl)c2)CCCCCCN1C(=O)c1ccccc1 (stereo not given) | – | 29.7 µM | 29.5 µM | 42.1 µM | 25.3 µM | 32.1 µM | 29 | 51.8 µM | 30 µM | – | – | – | – | – | – | – | – | – | – | – |
| O=Nc1c(O)ccc2ccccc12 | 18.4 µM | 5.52 µM | – | 10.6 µM | 15.9 µM | 28.6 µM | 31.4 | 3.38 µM | 7.52 µM | 1.88 | 5.26 | 2.45 | 8.24 | 2.17 | 2.16 | 3.04 | 3.85 | 3.58 | 16.7 | – |
| COc1ccc(C2S/C(=C\c3ccc(OC)cc3OC)C(=O)N2NC(=O)Cc2ccccc2)cc1 (stereo not given) | > 100 µM | > 100 µM | > 100 µM | > 100 µM | > 100 µM | > 100 µM | > 100 | – | > 100 µM | – | – | – | – | – | – | – | – | – | – | – |
| COc1cc(C2C(C(=O)Nc3ccccc3)=C(C)NC(C)=C2C(=O)Nc2ccccc2)ccc1O | > 100 µM | > 100 µM | > 100 µM | > 100 µM | > 100 µM | > 100 µM | > 100 | – | > 100 µM | – | – | – | – | – | – | – | – | – | – | – |
| O=C1C2=C(c3ccccc31)C(c1ccccc1Cl)N1C(=O)CSC1=N2 (stereo not given) | > 100 µM | > 100 µM | > 100 µM | > 100 µM | > 100 µM | > 100 µM | > 100 | – | > 100 µM | – | – | – | – | – | – | – | – | – | – | – |
| CCC1(CN(C)C)CC/C(=C\c2ccc3c(c2)OCO3)C1=O (stereo not given) | > 100 µM | > 100 µM | > 100 µM | > 100 µM | > 100 µM | > 100 µM | > 100 | – | > 100 µM | – | – | – | – | – | – | – | – | – | – | – |
| COc1ccc(C(=O)C=C2NCCN2)cc1 | > 100 µM | > 100 µM | > 100 µM | > 100 µM | – | > 100 µM | > 100 | – | > 100 µM | – | – | – | – | – | – | – | – | – | – | – |
| O=[N+]([O-])c1ccc2c(N=Nc3c(O)ccc4ccccc34)c(O)cc(S(=O)(=O)O)c2c1 | 50 µM and > 100 µM | 50 µM and > 100 µM | 50 µM and > 100 µM | 50 µM and > 100 µM | 50 µM and > 100 µM | 50 µM and > 100 µM | – | 50 µM and > 100 µM | 50 µM and > 100 µM | 47.5 | 49.9 | 67.2 | > 100 | 12.5 | 18.1 | 23.9 | 29.9 | 15.7 | – | 87.3 |
| Cc1ccc(Nc2ccc(Nc3ccc(C)cc3)c3c2C(=O)c2c(O)ccc(O)c2C3=O)cc1 | > 100 µM | > 100 µM | > 100 µM | > 100 µM | > 100 µM | > 100 µM | > 100 | – | > 100 µM | – | – | – | – | – | – | – | – | – | – | – |
| CCC1(OC(C)=O)C(=O)OCc2c1cc1n(c2=O)Cc2cc3ccccc3nc2-1 (stereo not given) | > 100 µM | 2.64 µM | > 100 µM | > 100 µM | > 100 µM | – | 25.5 | – | 12.1 µM | – | – | – | – | – | – | – | – | – | – | – |
